# Patent US20230157952A1, “METHOD FOR IMPROVING THE STABILITY OF A PHARMACEUTICAL COMPOSITION COMPRISING A HIGH PENETRATION DRUG, AND THE PHARMACEUTICAL COMPOSITION OBTAINED THEREFROM” (Techfields Inc., priority 2020, published 2023)
# Experiments:
# [1] = Effect of concentration on the stability of the solution (purity over time)
# [2] = Effect of temperature (and pH) on the stability of the solution (purity); assay type: physicochemical; settings: 7% solution in water
# [3] = 0.01 wt %, at 5° C. in 15% acetone
# [4] = 0.1 wt %, at 5° C. in 15% acetone
# [5] = 1 wt %, at 5° C. in 15% acetone
# [6] = 3 wt %, at 5° C. in 15% acetone
# [7] = 5 wt %, at 5° C. in 15% acetone
# [8] = 7 wt %, at 5° C. in 15% acetone
# [9] = 8 wt %, at 5° C. in 15% acetone
# [10] = 10 wt %, at 5° C. in 15% acetone
# [11] = 15 wt %, at 5° C. in 15% acetone
# [12] = 20 wt %, at 5° C. in 15% acetone
# [13] = 30 wt %, at 5° C. in 15% acetone
# [14] = 50 wt %, at 5° C. in 15% acetone
smiles,measurement,setting,value
"CCN(CC)CCOC(=O)c1cc(-c2ccc(F)cc2F)ccc1OC(C)=O.Cl [2-(diethylamino)ethyl 5-(2,4-difluorophenyl)-2-acetoxybenzoate•HCl]",Purity at day 0,[1]; [3],98.2%
same,Purity at day 3,[1]; [3],93.9%
same,Purity at day 7,[1]; [3],88.1%
same,Purity at day 15,[1]; [3],80.3%
same,Purity at day 22,[1]; [3],73.7%
same,Purity at day 28,[1]; [3],67.9%
same,Purity at day 60,[1]; [3],48.1%
same,Purity at day 90,[1]; [3],30.0%
same,Purity at day 0,[1]; [4],98.3%
same,Purity at day 3,[1]; [4],95.1%
same,Purity at day 7,[1]; [4],93.1%
same,Purity at day 15,[1]; [4],89.0%
same,Purity at day 22,[1]; [4],85.3%
same,Purity at day 28,[1]; [4],82.3%
same,Purity at day 60,[1]; [4],70.5%
same,Purity at day 90,[1]; [4],61.2%
same,Purity at day 0,[1]; [5],98.4%
same,Purity at day 3,[1]; [5],97.0%
same,Purity at day 7,[1]; [5],95.9%
same,Purity at day 15,[1]; [5],94.0%
same,Purity at day 22,[1]; [5],92.2%
same,Purity at day 28,[1]; [5],89.7%
same,Purity at day 60,[1]; [5],79.4%
same,Purity at day 90,[1]; [5],71.9%
same,Purity at day 0,[1]; [6],98.5%
same,Purity at day 3,[1]; [6],97.7%
same,Purity at day 7,[1]; [6],96.6%
same,Purity at day 15,[1]; [6],94.9%
same,Purity at day 22,[1]; [6],92.1%
same,Purity at day 28,[1]; [6],91.2%
same,Purity at day 60,[1]; [6],84.4%
same,Purity at day 90,[1]; [6],79.2%
same,Purity at day 0,[1]; [7],98.6%
same,Purity at day 3,[1]; [7],98.2%
same,Purity at day 7,[1]; [7],97.8%
same,Purity at day 15,[1]; [7],97.3%
same,Purity at day 22,[1]; [7],96.1%
same,Purity at day 28,[1]; [7],95.5%
same,Purity at day 60,[1]; [7],94.5%
same,Purity at day 90,[1]; [7],93.9%
same,Purity at day 0,[1]; [8],98.7%
same,Purity at day 3,[1]; [8],98.4%
same,Purity at day 7,[1]; [8],98.4%
same,Purity at day 15,[1]; [8],98.0%
same,Purity at day 22,[1]; [8],97.5%
same,Purity at day 28,[1]; [8],97.2%
same,Purity at day 60,[1]; [8],96.2%
same,Purity at day 90,[1]; [8],95.8%
same,Purity at day 0,[1]; [9],98.6%
same,Purity at day 3,[1]; [9],98.5%
same,Purity at day 7,[1]; [9],98.3%
same,Purity at day 15,[1]; [9],98.1%
same,Purity at day 22,[1]; [9],97.4%
same,Purity at day 28,[1]; [9],97.1%
same,Purity at day 60,[1]; [9],96.0%
same,Purity at day 90,[1]; [9],95.9%
same,Purity at day 0,[1]; [10],98.7%
same,Purity at day 3,[1]; [10],98.5%
same,Purity at day 7,[1]; [10],98.5%
same,Purity at day 15,[1]; [10],98.2%
same,Purity at day 22,[1]; [10],97.7%
same,Purity at day 28,[1]; [10],97.3%
same,Purity at day 60,[1]; [10],96.7%
same,Purity at day 90,[1]; [10],96.1%
same,Purity at day 0,[1]; [11],98.6%
same,Purity at day 3,[1]; [11],98.4%
same,Purity at day 7,[1]; [11],98.4%
same,Purity at day 15,[1]; [11],98.3%
same,Purity at day 22,[1]; [11],97.5%
same,Purity at day 28,[1]; [11],97.2%
same,Purity at day 60,[1]; [11],96.5%
same,Purity at day 90,[1]; [11],96.2%
same,Purity at day 0,[1]; [12],98.7%
same,Purity at day 3,[1]; [12],98.5%
same,Purity at day 7,[1]; [12],98.5%
same,Purity at day 15,[1]; [12],98.3%
same,Purity at day 22,[1]; [12],98.0%
same,Purity at day 28,[1]; [12],97.1%
same,Purity at day 60,[1]; [12],96.6%
same,Purity at day 90,[1]; [12],96.0%
same,Purity at day 0,[1]; [13],98.5%
same,Purity at day 3,[1]; [13],98.5%
same,Purity at day 7,[1]; [13],98.4%
same,Purity at day 15,[1]; [13],98.1%
same,Purity at day 22,[1]; [13],97.9%
same,Purity at day 28,[1]; [13],97.3%
same,Purity at day 60,[1]; [13],96.7%
same,Purity at day 90,[1]; [13],96.2%
same,Purity at day 0,[1]; [14],98.7%
same,Purity at day 3,[1]; [14],98.7%
same,Purity at day 7,[1]; [14],98.5%
same,Purity at day 15,[1]; [14],98.3%
same,Purity at day 22,[1]; [14],97.8%
same,Purity at day 28,[1]; [14],97.2%
same,Purity at day 60,[1]; [14],96.9%
same,Purity at day 90,[1]; [14],96.3%
same,Stability when the concentration is 0.1% or lower,[1]; at 5° C. in 15% acetone,not stable
same,Stability of the solution at a temperature higher than 40° C. and a pH lower than 3 or greater than 6,[2],not stable
CCN(CC)CCOC(=O)CC1=C(C)C(=Cc2ccc([S+](C)[O-])cc2)c2ccc(F)cc21.Cl (stereo not shown) [2-(diethylamino)ethyl 5-fluoro-2-methyl-1-[[4-(methylsulfinyl)phenyl]methylene]-1H-indene-3-acetate•HCl],Purity at Day 3,"[1]; 0.01 wt %, in water at 25° C.",82.3%
same,Purity at Day 7,"[1]; 0.01 wt %, in water at 25° C.",71.2%
same,Purity at Day 14,"[1]; 0.01 wt %, in water at 25° C.",59.4%
same,Purity at Day 21,"[1]; 0.01 wt %, in water at 25° C.",50.4%
same,Purity at Day 28,"[1]; 0.01 wt %, in water at 25° C.",43.7%
same,Purity at hr 0,"[1]; 0.01 wt %, in water at 25° C.",97.1%
same,Purity at Day 3,"[1]; 0.1 wt %, in water at 25° C.",95.7%
same,Purity at Day 7,"[1]; 0.1 wt %, in water at 25° C.",93.6%
same,Purity at Day 14,"[1]; 0.1 wt %, in water at 25° C.",89.8%
same,Purity at Day 21,"[1]; 0.1 wt %, in water at 25° C.",84.4%
same,Purity at Day 28,"[1]; 0.1 wt %, in water at 25° C.",78.9%
same,Purity at hr 0,"[1]; 0.1 wt %, in water at 25° C.",97.2%
same,Purity at Day 3,"[1]; 1 wt %, in water at 25° C.",96.2%
same,Purity at Day 7,"[1]; 1 wt %, in water at 25° C.",95.2%
same,Purity at Day 14,"[1]; 1 wt %, in water at 25° C.",93.1%
same,Purity at Day 21,"[1]; 1 wt %, in water at 25° C.",91.5%
same,Purity at Day 28,"[1]; 1 wt %, in water at 25° C.",90.1%
same,Purity at hr 0,"[1]; 1 wt %, in water at 25° C.",97.3%
same,Purity at Day 3,"[1]; 3 wt %, in water at 25° C.",96.7%
same,Purity at Day 7,"[1]; 3 wt %, in water at 25° C.",96.3%
same,Purity at Day 14,"[1]; 3 wt %, in water at 25° C.",95.0%
same,Purity at Day 21,"[1]; 3 wt %, in water at 25° C.",94.1%
same,Purity at Day 28,"[1]; 3 wt %, in water at 25° C.",93.1%
same,Purity at hr 0,"[1]; 3 wt %, in water at 25° C.",97.3%
same,Purity at Day 3,"[1]; 5 wt %, in water at 25° C.",97.3%
same,Purity at Day 7,"[1]; 5 wt %, in water at 25° C.",97.1%
same,Purity at Day 14,"[1]; 5 wt %, in water at 25° C.",96.7%
same,Purity at Day 21,"[1]; 5 wt %, in water at 25° C.",96.2%
same,Purity at Day 28,"[1]; 5 wt %, in water at 25° C.",95.4%
same,Purity at hr 0,"[1]; 5 wt %, in water at 25° C.",97.5%
same,Purity at Day 3,"[1]; 7 wt %, in water at 25° C.",97.4%
same,Purity at Day 7,"[1]; 7 wt %, in water at 25° C.",97.3%
same,Purity at Day 14,"[1]; 7 wt %, in water at 25° C.",97.1%
same,Purity at Day 21,"[1]; 7 wt %, in water at 25° C.",96.6%
same,Purity at Day 28,"[1]; 7 wt %, in water at 25° C.",96.4%
same,Purity at hr 0,"[1]; 7 wt %, in water at 25° C.",97.6%
same,Purity at Day 3,"[1]; 8 wt %, in water at 25° C.",97.4%
same,Purity at Day 7,"[1]; 8 wt %, in water at 25° C.",97.2%
same,Purity at Day 14,"[1]; 8 wt %, in water at 25° C.",96.9%
same,Purity at Day 21,"[1]; 8 wt %, in water at 25° C.",96.8%
same,Purity at Day 28,"[1]; 8 wt %, in water at 25° C.",96.5%
same,Purity at hr 0,"[1]; 8 wt %, in water at 25° C.",97.5%
same,Purity at Day 3,"[1]; 10 wt %, in water at 25° C.",97.5%
same,Purity at Day 7,"[1]; 10 wt %, in water at 25° C.",97.3%
same,Purity at Day 14,"[1]; 10 wt %, in water at 25° C.",97.0%
same,Purity at Day 21,"[1]; 10 wt %, in water at 25° C.",97.0%
same,Purity at Day 28,"[1]; 10 wt %, in water at 25° C.",96.7%
same,Purity at hr 0,"[1]; 10 wt %, in water at 25° C.",97.5%
same,Purity at Day 3,"[1]; 15 wt %, in water at 25° C.",97.4%
same,Purity at Day 7,"[1]; 15 wt %, in water at 25° C.",97.4%
same,Purity at Day 14,"[1]; 15 wt %, in water at 25° C.",97.1%
same,Purity at Day 21,"[1]; 15 wt %, in water at 25° C.",97.1%
same,Purity at Day 28,"[1]; 15 wt %, in water at 25° C.",96.8%
same,Purity at hr 0,"[1]; 15 wt %, in water at 25° C.",97.6%
same,Purity at Day 3,"[1]; 20 wt %, in water at 25° C.",97.4%
same,Purity at Day 7,"[1]; 20 wt %, in water at 25° C.",97.6%
same,Purity at Day 14,"[1]; 20 wt %, in water at 25° C.",97.2%
same,Purity at Day 21,"[1]; 20 wt %, in water at 25° C.",97.1%
same,Purity at Day 28,"[1]; 20 wt %, in water at 25° C.",96.8%
same,Purity at hr 0,"[1]; 20 wt %, in water at 25° C.",97.6%
same,Purity at Day 3,"[1]; 30 wt %, in water at 25° C.",97.5%
same,Purity at Day 7,"[1]; 30 wt %, in water at 25° C.",97.5%
same,Purity at Day 14,"[1]; 30 wt %, in water at 25° C.",97.3%
same,Purity at Day 21,"[1]; 30 wt %, in water at 25° C.",97.0%
same,Purity at Day 28,"[1]; 30 wt %, in water at 25° C.",96.7%
same,Purity at hr 0,"[1]; 30 wt %, in water at 25° C.",97.7%
same,Purity at Day 3,"[1]; 50 wt %, in water at 25° C.",97.5%
same,Purity at Day 7,"[1]; 50 wt %, in water at 25° C.",97.5%
same,Purity at Day 14,"[1]; 50 wt %, in water at 25° C.",97.2%
same,Purity at Day 21,"[1]; 50 wt %, in water at 25° C.",96.8%
same,Purity at Day 28,"[1]; 50 wt %, in water at 25° C.",96.8%
same,Purity at hr 0,"[1]; 50 wt %, in water at 25° C.",97.7%
same,Stability when the concentration is 0.1% or lower,[1]; in water at 25° C.,not stable
same,Stability of the solution at a temperature higher than 40° C. and a pH lower than 3 or greater than 6,[2],not stable
